Experimental data taken from patent US10294248B2, “Beta-lactamase inhibitors” (VenatoRx Pharmaceuticals, Inc., priority 2013, dated 2019).

Columns and labels:
Format in all cases: cell-based
[1] = system: E. coli ESBL4 expressing CTX-M-15; assay: Broth microdilution MIC, E. coli ESBL4 CTX-M-15; details: Escherichia coli, read-out: MIC alone, E. coli expressing CTX-M-15
Text: (§1) To determine the ability of test compounds to potentiate the inhibition of the growth of bacterial strains that produce beta-lactamase enzymes, classic cell based broth microdilution MIC assays were employed. Six bacteria strains producing beta-lactamase enzymes were used: E. coli expressing the Class A Extended Spectrum Beta-Lactamase (ESBL) CTX-M-15, E. cloacae expressing the Class C P99, K. pneumoniae expressing the Class A carbapenemase KPC-3, P. aeruginosa expressing the Class B carbapenemase VIM-2, K. pneumoniae expressing the class A carbapenemase KPC-2 and the class B carbapenemase VIM-4, and S. aureus producing the Class A penicillinase PC-1. The assay was conducted in Cation Adjusted Mueller Hinton Broth (CAMHB, BD #212322, BD Diagnostic Systems, Sparks, Md.). Bacteria strains were grown for 3-5 hours in CAMBH broth. Test compounds (Examples 1-30) were added to a microtiter plate in 2-fold serial dilutions in CAMHB in a final concentration range of 32 μg/mL to 0.25 μg/ml. An overlay of CAMHB containing a Beta-lactam was added to the compounds at a final static concentration of 4 μg/ml. […] In addition to the titration of test compounds the MICs of a panel of control beta-lactams is also tested to ensure the strains are behaving consistently from test to test. Once the test compound and antibiotics are added the plates can be inoculated according to CLSI broth microdilution method. After inoculation the plates are incubated for 16-20 hours at 37° C. then the Minimal Inhibitory Concentration (MIC) of the test compound is determined visually.
(§2) Using the methodology described above, examples of the current invention were evaluated for their ability to inhibit the growth of β-lactamase-producing bacteria in the presence of a β-lactam antibiotic.
(§3) Using the methodology described above in EXAMPLE III, exemplary compounds for Formula I or Formula Ia were evaluated for their ability to inhibit the growth of β-lactamase producing bacteria in the presence of a β-lactam antibiotic.

[2] = system: E. cloacae 144200 expressing Class C P99 AmpC; assay: Broth microdilution MIC, E. cloacae 144200 p99 AmpC; details: Enterobacter cloacae, read-out: MIC alone, E. cloacae expressing Class C P99
Text: as §1, §2, §3

[3] = system: K. pneumoniae 156319 expressing KPC-3; assay: Broth microdilution MIC, K. pneumoniae 156319 KPC-3; details: Klebsiella pneumoniae, read-out: MIC alone, K. pneumoniae expressing KPC-3
Text: as §1, §2, §3

[4] = system: P. aeruginosa Ps296 expressing VIM-2; assay: Broth microdilution MIC, P. aeruginosa Ps296 VIM-2; details: Pseudomonas aeruginosa, read-out: MIC alone, P. aeruginosa expressing VIM-2
Text: as §1, §2, §3

[5] = system: K. pneumoniae A-1797 expressing KPC-2 and VIM-4; assay: Broth microdilution MIC, K. pneumoniae A-1797 KPC-2/VIM-4; details: Klebsiella pneumoniae, read-out: MIC alone, K. pneumoniae expressing KPC-2 and VIM-4
Text: as §1, §2, §3

[6] = system: S. aureus MSSA-7 producing penicillinase PC-1; assay: Broth microdilution MIC, S. aureus MSSA-7 PC-1; details: Staphylococcus aureus, MSSA; partner antibiotic alone, no β-lactamase inhibitor
Text: as §1, §2, §3

In the case of CC(C)(O/N=C(\C(=O)N[C@@H]1C(=O)N2C(C(=O)[O-])=C(C[n+]3ccccc3)CS[C@H]12)c1csc(N)n1)C(=O)O [Ceftazidime, reference compound], the MIC [1] is reported as > 128 µg/mL and the MIC [2] is reported as 128 µg/mL.

For C[C@@H](O)[C@H]1C(=O)N2C(C(=O)O)=C(S[C@@H]3CN[C@H](C(=O)N(C)C)C3)[C@H](C)[C@H]12 [Meropenem, reference compound], the MIC [3] was > 128 µg/mL, the MIC [4] was 16 µg/mL and the MIC [5] was 64 µg/mL.

In the case of CCN1CCN(C(=O)N[C@@H](C(=O)N[C@@H]2C(=O)N3[C@@H]2SC(C)(C)[C@@H]3C(=O)O)c2ccccc2)C(=O)C1=O [Piperacillin, reference compound], the MIC [6] is reported as 64 µg/mL.
